Where “and” joins values, the source holds several entries; their conditions need not be identical. Equal entries are not always repeated.

A word on the Ki: it is a measure of affinity in units of concentration, obtained from inhibition or displacement. Read a low Ki as higher affinity.

This assay deals with T1, Corticotropin-releasing factor receptor 1 (Homo sapiens, UniProt P34998).
T1 sequence (P34998 whole entry): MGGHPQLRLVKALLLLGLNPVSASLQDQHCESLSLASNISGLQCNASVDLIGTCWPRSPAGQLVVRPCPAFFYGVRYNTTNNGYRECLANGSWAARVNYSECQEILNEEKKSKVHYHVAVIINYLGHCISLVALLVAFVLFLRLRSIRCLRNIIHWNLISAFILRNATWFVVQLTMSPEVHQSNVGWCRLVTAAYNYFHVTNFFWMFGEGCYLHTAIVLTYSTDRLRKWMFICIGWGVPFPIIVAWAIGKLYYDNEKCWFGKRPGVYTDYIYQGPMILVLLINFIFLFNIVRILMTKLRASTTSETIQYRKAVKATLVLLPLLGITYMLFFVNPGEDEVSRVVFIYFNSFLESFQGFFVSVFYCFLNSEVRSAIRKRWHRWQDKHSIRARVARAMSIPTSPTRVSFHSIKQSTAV
Consider `CCCCN(CC)c1nc(C)nc2c1c(C)cn2-c1c(C)cc(C)cc1C`, for which the Ki is 1.2 nM and 0.4 nM.
For the molecule `CCC(CC)Nc1cc(C)nc2c(-c3ccc(OC)cc3C)c(C)nn12`, the inhibition constant Ki is 0.4 nM.
For `CCC(COC)n1nnc2c(Nc3ccc(OC)cc3C)nc(C)cc21` (stereo unspecified), the Ki is 6.8 nM and 4.9 nM.
`COCC(COC)Nc1nc(C)nc2c(-c3ccc(Cl)cc3Cl)c(C)nn12` [DMP696] registered a Ki of 2.8 nM.
Regarding `CC[C@H](C)[C@H](NC(=O)[C@H](CC(=O)O)NC(=O)[C@H](CC(C)C)NC(=O)[C@H](CC(C)C)NC(=O)[C@H](CCCCN)NC(=O)[C@H](CCCN=C(N)N)NC(=O)[C@H](CC(N)=O)NC(=O)[C@H](CO)NC(=O)[C@H](Cc1cnc[nH]1)NC(=O)[C@H](C)NC(=O)[C@H](CCC(N)=O)NC(=O)[C@H](CCC(N)=O)NC(=O)[C@H](C)NC(=O)[C@H](CC(C)C)NC(=O)[C@H](CCC(N)=O)NC(=O)[C@H](CC(=O)O)NC(=O)[C@H](C)NC(=O)[C@H](CCCCN)NC(=O)[C@@H](NC(=O)[C@H](CCSC)NC(=O)[C@H](CCC(=O)O)NC(=O)[C@H](CC(C)C)NC(=O)[C@@H](NC(=O)[C@H](CCC(=O)O)NC(=O)[C@H](CCCN=C(N)N)NC(=O)[C@H](CC(C)C)NC(=O)[C@H](CC(C)C)NC(=O)[C@H](Cc1cnc[nH]1)NC(=O)[C@H](Cc1ccccc1)NC(=O)[C@@H](NC(=O)[C@H](CC(C)C)NC(=O)[C@H](CC(=O)O)NC(=O)[C@H](CC(C)C)NC(=O)[C@H](CO)NC(=O)[C@@H](NC(=O)[C@@H]1CCCN1C(=O)[C@@H]1CCCN1C(=O)[C@H](CCC(=O)O)NC(=O)[C@H](CCC(N)=O)NC(=O)[C@@H](N)CO)[C@@H](C)CC)[C@@H](C)O)C(C)C)[C@@H](C)O)C(=O)N[C@@H](C)C(N)=O` [NSC_0], the inhibition constant Ki was 3.3 nM and 23.1 nM.
As for “H-DLTFHLLREMLEMAKAEQEAEQAALNRLLLEEA-NH2 [NSC_0]”, the Ki is > 1000 nM.

The record behind these values is BindingDB's records for doi:10.1124/jpet.102.046128 (Bristol-Myers Squibb Pharmaceuticals Research Institute, 2003).
